# A melting point compilation (Tetko et al.; mined from patent text by program, amines drawn as free bases though some values may be those of a salt)
row,Structure (SMILES),melting point
1,O=C(O)c1ccc(C2=NOC(c3cc(Cl)cc(Cl)c3)(C(F)(F)F)C2)cc1 (stereo unspecified),237 to 240 °C
2,NC(=O)CC[C@H](NC(=O)OCc1ccccc1)C(=O)N[C@@H](Cc1ccc(O)cc1)C(=O)OCc1ccccc1,165 to 170 °C
3,CCOC(=O)/C=C/c1cc(-n2cnnc2)cc(C(F)(F)F)c1N,225 to 227 °C
4,COc1cc(Cc2cnc(N)nc2N)c2ccccc2c1OC,228 to 230 °C
5,C=CCC(c1c(Cl)c(Cl)cc2[nH]c(=O)c(=O)[nH]c12)S(C)(=O)=O (stereo unspecified),270 to 272 °C
6,CC(=O)C(O)C1OC(n2cc(C#N)c(=O)[nH]c2=O)CC1C(C)=O (stereo unspecified),160 to 162 °C
7,O=C(N[C@H](Cc1ccc(C(F)(F)F)cc1)[C@@H](O)c1ccc(F)cc1)c1c2ccccc2cc2ccccc12 (racemic),251 to 252 °C
8,CCOC(=O)CN(CC(=O)OCC)Cc1ccc2cc(N)c3ccc(CN(CC(=O)OCC)CC(=O)OCC)nc3c2n1,137 to 139 °C
9,NNc1ncc(-c2ccc(F)cc2)nn1,231 to 235 °C
10,CNC(=NC(=O)NC1CCCCC1)N(C)C,121 to 124 °C
11,N#Cc1ncc(Cl)cc1F,72 to 73 °C
12,O=C(Nc1cccc(-c2ccnc3c(C(=O)c4cccs4)cnn23)c1)OCCCN1CCS(=O)(=O)CC1,148 to 159 °C
13,CC(C(=O)CCc1ccc(OC(F)(F)F)cc1)n1cncn1 (stereo unspecified),58 °C
14,COC(=O)c1ccc(Cc2cn(C)c3ccc(C=O)cc23)c(OC)c1,116 to 118 °C
15,O=c1[nH]sc2c1c(=O)c1cc(F)c(F)c(F)c1n2C1CC1,243 to 245 °C
16,CCc1c(C(F)(F)F)nn(-c2ccc(S(N)(=O)=O)cc2)c1-c1ccc(OC)c(C)c1,135 to 136 °C
17,CS(=O)(=O)Nn1c(=O)[nH]c2cc([N+](=O)[O-])c(-n3cnc(CO)c3)cc2c1=O,> 300 °C
18,CCC(=O)NNC(=O)C(=O)NC1CC(C)(C)NC(C)(C)C1,221 to 225 °C
19,Oc1ccc2c(c1)COc1c-2cc2ccc(O)cc2c1-c1cccs1,233 to 236 °C
20,CC(C)COC(=O)Nc1cccc(-c2ccnc3c(-c4cccs4)cnn23)c1,140 to 141 °C
21,O=C(O)c1cnc2ccc(-c3ccc(Cl)cc3)cn12,206 °C
22,O=C=Nc1ccc(Oc2cc(Cl)ncn2)cc1,103 °C

row,Structure (SMILES),melting point
1,COC(=O)/C(=C\C=C\c1sc2ccccc2c1C)OC,91 to 92 °C
2,Cc1ccc(C(=O)NC(=O)N2CC2C#N)cc1 (stereo unspecified),177 to 180 °C
3,c1ccc(N(c2ccccc2)c2ccc(-c3ccc(-c4ccnc(Nc5ccc6ccccc6c5)n4)cc3)cc2)cc1,> 300 °C
4,CCCCOc1ccc(C(=O)c2ccc(OCCBr)cc2)cc1,107 to 108 °C
5,COc1cccc(F)c1-n1nnc2cc(C(C)(C)C)c(OCc3ncnn3C)nc21,116 to 118 °C
6,O=C1CCC(N2Cc3c(OCc4ccc(CCN5CCOCC5)cc4)cccc3C2=O)C(=O)N1 (stereo unspecified),230 to 232 °C
7,CCCCCCCCCCCC(=O)Nc1cc([N+](=O)[O-])ccc1F,75 to 77 °C
8,COc1ccc(C(F)(F)C(F)(F)F)cc1-c1csc(N)n1,125 °C
9,Clc1cccc(C(c2ccnc3ccccc23)n2ccnc2)c1 (stereo unspecified),184 °C
10,CC(Oc1ncn(-c2ccc(Cl)cc2)n1)C(=O)O (stereo unspecified),196 to 198 °C
11,OC1CSC(Oc2ccc(-c3ccc(F)nc3)nc2F)C(O)C1O (stereo unspecified),141 to 144 °C
12,CCCn1cc(-c2c(-c3ccc(F)cc3)nn3ccncc23)ccc1=O,183 to 184 °C
13,CCc1cc(N2CCCCC2)c(S(C)(=O)=O)cc1C(=O)N=C(N)N,218 to 220 °C
14,CNC(=O)N(OC)C(=O)Nc1ccccc1F,144 to 147 °C
15,COC(=O)c1cccc(NC(=O)NCC(=O)O)c1,215 °C
16,COc1cccc2c1C(c1ccc(Cl)cc1)NC(=O)C2 (stereo unspecified),250 to 251 °C
17,CCCc1ccccc1OCCCOc1ccc2c(=O)cc(C#N)oc2c1,85 to 86 °C
18,CS(=O)(=O)c1ccc(-n2nccc2-c2ccc(Br)cc2)cc1F,155 to 156 °C
19,CCCCCCCCC(SCCCCCC)C(=O)Nc1c(SC)cc(C)nc1SC (stereo unspecified),75 to 76.5 °C
20,Cc1cc(C(O)(COc2ccc(Cl)cc2)C(F)(F)F)ccc1NC(=O)c1cccc(I)c1C(=O)NC(C)C (stereo unspecified),90 to 95 °C
21,COc1cc(C(=O)c2ccccc2F)cc([N+](=O)[O-])c1O,127 to 129 °C
22,NS(=O)(=O)c1cc(C(=O)O)cc(NCc2ccccc2)c1NCCc1ccccc1,203 °C

row,Structure (SMILES),melting point
1,CC(=O)NCCOC(=O)C(Oc1ccc(F)c(C(F)(F)F)c1)c1ccc(Cl)cc1 (stereo unspecified),108 °C
2,CC(C)NC(=O)N1CCc2[nH]cnc2C1c1ccncc1 (stereo unspecified),212 °C
3,COC(=O)c1ccc(Cl)c2c1C=CCO2,49 to 50 °C
4,COc1ccc(NS(=O)(=O)c2cc3cc(Cl)ccc3oc2=O)cc1,175 to 177 °C
5,CCN(CC)C(=O)[C@H]1CN2CC[C@H]1[C@H](NCc1cc(OC)ccc1OC)[C@@H]2C(c1ccccc1)c1ccccc1 (relative stereo),153 to 154 °C
6,Cc1ccc(S(=O)(=O)c2ncc(I)cn2)cc1,138 to 139 °C
7,NS(=O)(=O)c1ccc(NN=Cc2ccc(Cl)cc2)cc1,181 to 182 °C
8,Cc1ccn2cc(CCc3ccc4nc(N=CN(C)C)oc4c3)nc2c1,150 to 151 °C
9,CC(C)(C)C(=O)c1sc(N)nc1-c1ccc(P(=O)(O)O)o1,> 220 °C
10,CS(=O)(=O)c1ccc(-c2c(-c3ccc(F)cc3)c(OCC(=O)c3cccs3)nn2CC(=O)c2cccs2)cc1,136 to 138 °C
11,CCCc1nc(-n2cccc2)c(C#N)[nH]1,75 to 78 °C
12,COc1ccc(S(=O)(=O)N(Cc2cccnc2)c2c(C(=O)O)cc(C)cc2-c2ccco2)cc1,82 °C
13,Cc1csc(N2CCN(Cc3ccc(C(=O)n4nccc4C)cc3)C2=O)n1,96 to 97 °C
14,CC1(C)OC(c2ccc(S(N)(=O)=O)cc2)=C(I)C1=O,179 to 180 °C
15,CCn1cc(-c2nnn[nH]2)c(=O)c2cc(F)c(N3CCN(c4ncccn4)CC3)c(OC(F)F)c21,265 to 268 °C
16,CCOCc1nc2c(N)nc3ccc(OCc4cccnc4)cc3c2n1CC(C)C,204 to 206 °C
17,C[C@H](CN1CC=C(c2cccs2)CC1)Nc1ccccn1,63 to 68 °C
18,CCNc1ccc(F)c(-c2cccnc2)c1F,79 to 80 °C
19,C#CCn1c(=O)c2c(nc(C#Cc3cccc(O)c3)n2C)n(C)c1=O,271 °C
20,COc1cc2c(cc1O)CC(C)(C)N(Cc1cc(OC)c(OC)c(OC)c1)C2,143 to 147 °C
21,COc1cc(-c2cc(C(F)(F)F)nn2-c2ccc(S(C)(=O)=O)cc2)ccc1-c1cscn1,164 to 166 °C
22,CS(=O)(=O)c1ccc(-c2n[nH]c(C(F)(F)F)c2-c2ccc(F)cc2)cc1,219 to 220 °C

# Now from value to compound:
row,melting point,Structure (SMILES)
1,258 °C,O=C(CN1CCOCC1)Nc1cccc2c1C(=O)c1c-2n[nH]c1-c1ccc(N2CCOCC2)cc1
2,222 to 224 °C,O=C(Nc1nnn(CC2CC2)n1)C1c2ccccc2Oc2ccccc21
3,79 to 84 °C,CCCCCN1C(=O)C(CCC#N)(NC(=O)c2ccc(Cl)c(Cl)c2)c2ccccc21 (stereo unspecified)
4,136 °C,OC(c1ccc2noc(-c3cccc(Cl)c3)c2c1)c1nc(-c2ccccc2)cs1 (stereo unspecified)
5,132 to 134 °C,N#CC=Cc1ccc(NC(=O)C=CC=C(Nc2cc(Cl)cc(Cl)c2I)C(=O)OCc2ccccc2)cc1
6,254 to 256 °C,Cc1[nH]c(C(=O)NC2CCN(c3cc(C(=O)O)nc4ccccc34)CC2)c(Cl)c1Cl
7,259 to 263 °C,N#CC(C(=O)Nc1ccccc1)C(=O)c1nn(-c2ccccc2)c2c1Cc1ccc(Cl)cc1-2 (stereo unspecified)
8,178 °C,Cc1noc(-c2c3cccc(-c4ccc(Cl)cc4Cl)c3nn2C)n1
9,112 to 114 °C,COc1ccc(C2(O)CCN(Cc3ccccc3)CC2)cc1OC
10,> 235 °C,CC(=O)c1ccc(NCc2ccc3ccc4nc(C)[nH]c(=O)c4c3c2)cc1
11,250 °C,Cc1cc(-c2cc(C(F)(F)F)n3ncc(C(=O)O)c3n2)ccc1C(F)(F)F
12,233 to 236 °C,COc1ccc(Oc2nc(Nc3cccc(C(=O)O)c3)nc(Oc3ccccc3)n2)cc1
13,259 to 261 °C,CCCn1cc(C(=O)O)c(=O)c2cnc(N3CCNCC3)nc21
14,155 to 160 °C,Cn1c(C(=O)NCCCO)c2ccc(Cl)cc2c1-c1ccccc1
15,109 to 113 °C,Cc1cc2c(c3c1CCC3)OC(CNC(=O)OCc1ccccc1)C2 (stereo unspecified)
16,112 to 113 °C,CS(=O)CCNC(=O)c1cccc(-c2ccc3c(c2)C(c2ccc(Cl)cc2Cl)CC3)c1 (stereo unspecified)
17,75 °C,CS(=O)(=O)NC(=O)CC1(c2ccc(OCc3ccc4ccccc4n3)cc2)CCCC1
18,130 to 132 °C,Cc1cccc(C=NN2CCN(C(c3ccccc3)c3ccccc3)CC2)n1
19,248 °C,NC(=O)CCc1ccc(-c2nc(=O)c3ccccc3s2)nc1
20,295 to 296 °C,O=C(O)c1ccc2c(c1)S(=O)c1ccccc1C2=O (stereo unspecified)
21,130 °C,Cc1ccc(S(=O)(=O)N2CCC(CC(C#N)(c3ccccc3)c3ccccc3)CC2)cc1
22,208 to 210 °C,COc1c(-c2ccccc2C)c(=O)[nH]c2ccccc12
23,168 to 174 °C,COc1cc(C(=O)NN2CCN(C)CC2)ccc1Nc1ncc2c(n1)N(C1CCCC1)CC(F)(F)C(=O)N2C
24,230 °C,Cn1c(Cn2nc(CC(=O)O)c3ccccc3c2=O)nc2ccccc21
25,167 to 170 °C,COc1cc(C=C2CCN(C(=O)NOCc3ccccc3)C2=O)cc(OC)c1O
26,165 to 166 °C,Cn1c(CCN2CCN(c3cccc(C(F)(F)F)c3)CC2)nc2cc(Br)c3ccccc3c21
27,123 to 125 °C,CCOc1ccc(C(=O)C2CC=CCC2C(=O)O)cc1Cl (stereo unspecified)
28,186 to 189 °C,O=Cc1c2ccccc2c(C=O)c2c(Cl)cccc12
29,169 to 172 °C,Cc1cccc2nc3c(cc12)oc1cccc(Cl)c13
30,165 °C,COC(=O)COc1ccccc1Oc1cc(NC(=O)CC(O)(O)C(F)(F)F)c(F)cc1Cl
